Test results: US20160158200A1, “Combinations of Hepatitis C Virus Inhibitors” (priority 2013, published 2016)

System: HCV genotype-1a variant with glutamine 30 changed to glutamate in the NS5A protein
Type: cell-based
Conditions: test compound titrated with BMS-790052 fixed at 200 nM; genotype 1a Q30E replicon
Method in brief: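 Synergy was assessed by combining several fixed amounts of an NS5A-targeting compound with a titration of the second compound of interest.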

| SMILES | Fold-Synergistic 1a (Q30E) [fold] |
| --- | --- |
| CC1(C)CCN(C(=O)c2ccc(-c3ccccc3)cc2)C1c1nc(-c2ccc(-c3ccc(-c4c[nH]c(C5N(C(=O)c6ccc(-c7ccccc7)cc6)CCC5(C)C)n4)cc3)cc2)c[nH]1 (centres unmarked) [Compound W-227] | >100 |
| CC(C)[C@H](NC(=O)CCCn1ccnc1)c1ncc(-c2ccc(-c3ccc(-c4cnc([C@@H](NC(=O)CCCn5ccnc5)C(C)C)[nH]4)cc3)cc2)[nH]1 [Compound S-58] | <10 |
| COC(C)(CO)C(=O)N[C@H](c1nc(-c2ccc(-c3ccc(-c4c[nH]c([C@@H](NC(=O)C(C)(CO)OC)C(C)(C)C)n4)cc3)cc2)c[nH]1)C(C)(C)C (some centres unmarked) [Compound W-235] | >100 |
| CC(C)(C)[C@H](NC(=O)C1CCC2(CC1)CC2)c1nc(-c2ccc(-c3ccc(-c4c[nH]c([C@@H](NC(=O)C5CCC6(CC5)CC6)C(C)(C)C)n4)cc3)cc2)c[nH]1 (some centres unmarked) [Compound N-123] | >100 |
| O=C(Oc1ccccc1)N1CCC[C@H]1c1ncc(-c2ccc(-c3ccc(-c4cnc([C@@H]5CCCN5C(=O)Oc5ccccc5)[nH]4)cc3)cc2)[nH]1 [Compound S-223] | >100 |
| CC(C)(C(=O)N[C@H](c1nc(-c2ccc(-c3ccc(-c4c[nH]c([C@@H](NC(=O)C(C)(C)C(O)c5ccccc5F)C(C)(C)C)n4)cc3)cc2)c[nH]1)C(C)(C)C)C(O)c1ccccc1F (single isomer, unassigned) [Compound N-124C] | >100 |
| C=C1CCC(C(=O)N[C@H](c2nc(-c3ccc(-c4ccc(-c5c[nH]c([C@@H](NC(=O)C6CCC(=C)CC6)C(C)(C)C)n5)cc4)cc3)c[nH]2)C(C)(C)C)CC1 [Compound N-118] | >100 |
| CC(C)[C@H](NC(=O)c1ccc(C(F)(F)F)nc1)c1ncc(-c2ccc(-c3ccc(-c4cnc([C@@H](NC(=O)c5ccc(C(F)(F)F)nc5)C(C)(C)C)[nH]4)cc3)cc2)[nH]1 [Compound Y-47] | >100 |
| CC(CO)(OCCF)C(=O)N[C@H](c1nc(-c2ccc(-c3ccc(-c4c[nH]c([C@@H](NC(=O)C(C)(CO)OCCF)C(C)(C)C)n4)cc3)cc2)c[nH]1)C(C)(C)C (single isomer, unassigned) [Compound W-270] | >100 |
| CC(C)(C)C(NC(=O)C(C)(C)C(O)C1CC1)c1nc(-c2ccc(-c3ccc(-c4c[nH]c(C(NC(=O)C(C)(C)C(O)C5CC5)C(C)(C)C)n4)cc3)cc2)c[nH]1 (mixture of isomers) [Compound N-148] | >100 |
| CC(C)(C)[C@H](NC(=O)C1(CF)CC1)c1nc(-c2ccc(-c3ccc(-c4c[nH]c([C@@H](NC(=O)C5(CF)CC5)C(C)(C)C)n4)cc3)cc2)c[nH]1 [Compound P-14] | >100 |
| CN(C)C(=O)C(=O)N[C@H](c1nc(-c2ccc(-c3ccc(-c4c[nH]c([C@@H](NC(=O)C(=O)N(C)C)C(C)(C)C)n4)cc3)cc2)c[nH]1)C(C)(C)C [Compound W-10] | >100 |
| CC(C)(C)[C@H](NC(=O)C1(N2CCC(F)(F)CC2)COC1)c1nc(-c2ccc(-c3ccc(-c4c[nH]c([C@@H](NC(=O)C5(N6CCC(F)(F)CC6)COC5)C(C)(C)C)n4)cc3)cc2)c[nH]1 [Compound W-63] | >100 |
| CC(C)C(=O)NC1(C(=O)N[C@H](c2nc(-c3ccc(-c4ccc(-c5c[nH]c([C@@H](NC(=O)C6(NC(=O)C(C)C)CCCCC6)C(C)(C)C)n5)cc4)cc3)c[nH]2)C(C)(C)C)CCCCC1 [Compound W-266] | >100 |
| CC(C)(C)[C@H](NC(=O)C(=O)c1cccs1)c1nc(-c2ccc(-c3ccc(-c4c[nH]c([C@@H](NC(=O)C(=O)c5cccs5)C(C)(C)C)n4)cc3)cc2)c[nH]1 [Compound W-19] | >100 |
| CC(C)[C@H](NC(=O)C(F)(F)c1ccccc1)c1ncc(-c2ccc(-c3ccc(-c4cnc([C@@H](NC(=O)C(F)(F)c5ccccc5)C(C)C)[nH]4)cc3)cc2)[nH]1 [Compound P-97] | >100 |
| CN(C)C(=N[C@H](c1ncc(-c2ccc(-c3ccc(-c4cnc([C@@H](NC(=O)C(C)(C)C5=CCCCC5)C(C)(C)C)[nH]4)cc3)cc2)[nH]1)C(C)(C)C)N(C)C [Compound B87] | >100 |
| CC1(C(=O)NC(c2nc(-c3ccc(-c4ccc(-c5c[nH]c(C(NC(=O)C6(C)CCCOC6)C(C)(C)C)n5)cc4)cc3)c[nH]2)C(C)(C)C)CCCOC1 (mixture of isomers) [Compound Y-100] | >100 |
| CC(C)[C@H](NC(=O)C(C)(C)C)c1nc(-c2ccc3c(c2)CCc2cc(-c4c[nH]c([C@@H](NC(=O)C(C)(C)C)C(C)C)n4)ccc2-3)c[nH]1 [Compound N-74] | >100 |
| CC(C)(C)[C@H](NC(=O)C(=O)N1CCC(F)(F)C1)c1nc(-c2ccc(-c3ccc(-c4c[nH]c([C@@H](NC(=O)C(=O)N5CCC(F)(F)C5)C(C)(C)C)n4)cc3)cc2)c[nH]1 [Compound W-22] | >100 |
| CC(O)C(C)(C)C(=O)N[C@H](c1ncc(-c2ccc(-c3ccc(-c4cnc([C@@H](NC(=O)C(C)(C)C(C)O)C(C)(C)C)[nH]4)cc3)cc2)[nH]1)C(C)(C)C (single isomer, unassigned) [Compound B76] | >100 |
| C#CCCC(=O)N[C@H](c1ncc(-c2ccc(-c3ccc(-c4cnc([C@@H](NC(=O)CCC#C)C(C)C)[nH]4)cc3)cc2)[nH]1)C(C)C [Compound S-44] | >100 |
| CC(C)[C@H](NC(=O)[C@H](NC(=O)OC1CCCC1)C(C)C)c1ncc(-c2ccc(-c3ccc(-c4cnc([C@@H](NC(=O)[C@H](NC(=O)OC5CCCC5)C(C)C)C(C)C)[nH]4)cc3)cc2)[nH]1 [Compound S-251] | >100 |
| CC1(C(O)C(C)(C)C(=O)N[C@H](c2nc(-c3ccc(-c4ccc(-c5c[nH]c([C@@H](NC(=O)C(C)(C)C(O)C6(C)CC6)C(C)(C)C)n5)cc4)cc3)c[nH]2)C(C)(C)C)CC1 (single isomer, unassigned) [Compound N-151C] | >100 |
| CC(C)(C)[C@H](NC(=O)CC1CCCCC1)c1nc(-c2ccc(-c3ccc(-c4c[nH]c([C@@H](NC(=O)CC5CCCCC5)C(C)(C)C)n4)cc3)cc2)c[nH]1 [Compound N-50] | >100 |
| CC(C)[C@H](NC(=O)C1CCC(F)(F)CC1)c1ncc(-c2ccc3cc4cc(-c5cnc([C@@H](NC(=O)C6CCC(F)(F)CC6)C(C)C)[nH]5)ccc4cc3c2)[nH]1.O=C(O)C(F)(F)F [Compound B29] | >100 |
| CC(C)[C@H](NC(=O)[C@@H]1CCCO1)c1ncc(-c2ccc(-c3ccc(-c4cnc([C@@H](NC(=O)[C@@H]5CCCO5)C(C)C)[nH]4)cc3)cc2)[nH]1 [Compound P-66] | >100 |
| CC(C)[C@H](NC(=O)C1CCC(F)(F)CC1)c1ncc(-c2ccc3c(c2)Cc2cc(-c4cnc([C@@H](NC(=O)C5CCC(F)(F)CC5)C(C)C)[nH]4)ccc2-3)[nH]1.O=C(O)C(F)(F)F [Compound N-70] | >100 |
| Cc1cccc(C(=O)N[C@H](c2ncc(-c3ccc(-c4ccc(-c5cnc([C@@H](NC(=O)c6cccc(C)c6)C(C)C)[nH]5)cc4)cc3)[nH]2)C(C)C)c1 [Compound S-80] | >100 |
